Patent US20080255217A1, “PREVENTIVE OR THERAPEUTIC AGENT FOR CARDIAC DYSFUNCTION OR MYOCARDIAL INJURY CAUSED BY ISCHEMIA OR ISCHEMIA REPERFUSION” (SANWA KAGAKU KENKYUSHO CO., LTD., priority 2005, published 2008)

Assays:
[1] = tested on: hearts of wild-type mice (BDF-1); test: Isolated heart (Langendorff) ischemia-reperfusion, wild-type mice; set-up: species or system mouse; conditions: for deterioration of the cardiac performance and destruction of cardiac muscle due to an ischemia reperfusion injury in a heart: discussion summary of wild-type and hAR-TG results; for increase of left ventricular end-diastolic pressure (LVEDP) after ischemia reperfusion: 1 μM in perfusion solution, FIG. 2; for release of CK from cardiomyocytes: 60-min reperfusion, FIG. 4
Procedure: (§1) In an experimental test, hearts of 7 to 9 week-old wild-type mice (BDF-1) and hAR-TG were used. From these mice, hearts were isolated under anesthesia of pentobarbital 50 mg/kg i.p., and were placed in ice-cold saline. The isolated hearts were perfused for 20 minutes at a perfusion pressure of 70 mmHg with the Langendorff apparatus (Model IH-1 Type 844, HUGO SACHS ELEKTRONIK, Germany), and was stabilized. Thereafter, after perfusion for 30 minutes under heart function measurement, perfusion solution was completely stopped for 30 minutes, and reperfusion was performed for further 60 minutes, thereby, ischemia-ischemia reperfusion loading was performed. As perfusion solution, Krebs-Henseleit (KH) buffer containing 5.55 mM glucose and 2 mM Na-pyruvate was used. Cardiac performance was assessed by a left ventricular end-diastolic pressure (LVEDP) and peak first derivative of left ventricular systolic pressure (+dP/dt max). These were measured with a pressure transducer connected with a balloon inserted into a left ventricle in condition of hearts paced at 3 volt, 420 beats/min with an electrode placed on the top of a right ventricle, and data thereof were calculated with a four cannel recording device (OMUNIACE RT-3300, NEC, Japan). An AR inhibitor was added to the perfusion solution for 10 minutes from 15 minutes before global ischemia initiation as shown in FIG. 1. Each inhibitor (1 μM SNK-860: SNK, 1-10 μM zopolrestat: ZOP, 10 μM epalrestat: EPA) was dissolved in DMSO, and a DMSO final concentration in a perfusion solution was adjusted to 0.05%. DMSO of the same concentration was also added to a perfusion solution of a control experiment. Cardiomyocytes injury was determined using as an index the release of total creatinine kinase (CK) for 60-min reperfusion, and a myocardial ATP content after 60 minutes reperfusion was determined by the bioluminescence method (Sigma-Aldrich, St. Louis, Mo.) using luciferase, respectively.

[2] = tested on: hearts of human aldose reductase (AR) transgenic mice (hAR-TG); test: Isolated heart (Langendorff) ischemia-reperfusion, hAR-TG mice; set-up: species or system mouse; conditions: for increase in LVEDP: FIG. 5; for reduction in +dP/dt max: FIG. 6; for release of CK into a perfusion solution: FIG. 7; for decrease in a myocardial ATP content: after 60 minutes reperfusion, FIG. 8
Source text: In the present invention, not only wild-type mice, but also human aldose reductase (AR) transgenic mice (hAR-TG) which was produced so as to overexpress human-type AR genetically in a mouse, were used for predicting effectiveness in humans which is significant for the development of such a therapeutic agent. As a control for comparison with SNK-860, epalrestat and zopolrestat were used.
as §1
For hAR-TG mice, littermates (LM: hAR non-expression litter mouse) were used as control mice without drug treatment.

[3] = target: aldose reductase (Homo sapiens, UniProt P15121); test: Aldose reductase inhibitory activity; type: biochemical; conditions: background statement
[4] = tested on: diabetic cardiomyopathy patients; conditions: Johnson B F: Diabetes Care 27,448, 2004; cited from earlier work
[5] = drug development ceased; cited from earlier work
[6] = wild-type mice, isolated heart, 1 μM

| increase in LVEDP ([2]; 1 μM) | reduction in +dP/dt max ([2]; 1 μM) | increase in LVEDP ([2]; 10 μM) | reduction in +dP/dt max ([2]; 10 μM) | release of CK into a perfusion solution ([2]; 10 μM) | decrease in a myocardial ATP content ([2]; 10 μM) | Structure (SMILES) | deterioration of the cardiac performance and destruction of cardiac muscle due to an ischemia reperfusion injury in a heart ([1]; lower concentration, non-diabetic state) | increase of left ventricular end-diastolic pressure (LVEDP) after ischemia reperfusion ([1]; wild-type mice, isolated heart) | reduction in peak first derivative of left ventricular systolic pressure (+dP/dt max) immediately after reperfusion ([1]; wild-type mice, isolated heart, 1 μM, FIG. 3) | release of CK from cardiomyocytes [1, 6] | release of CK into a perfusion solution ([2]; 1 μM) | decrease in a myocardial ATP content ([2]; 1 μM) | aldose reductase inhibitory activity [3] | deterioration of the cardiac performance and destruction of cardiac muscle due to an ischemia reperfusion injury in a heart ([1]; high concentration) | cardiac performance of diabetic cardiomyopathy patients [4] | manifestation of side effects [5] |
| --- | --- | --- | --- | --- | --- | --- | --- | --- | --- | --- | --- | --- | --- | --- | --- | --- |
| significant improvement | significant improvement | – | – | – | – | NC(=O)[C@@H]1C[C@]2(NC(=O)NC2=O)c2cc(F)ccc2O1 [SNK-860, (2S,4S)-6-fluoro-2′,5′-dioxospiro[chroman-4,4′-imidazolidine]-2-carboxamide] | completely inhibited | significantly improved | the most remarkable effect | significant reduction | equivalent improvement effect to that of the 10 μM epalrestat-addition group | equivalent improvement effect to that of the 10 μM epalrestat-addition group | strong aldose reductase inhibitory activity | – | – | – |
| – | – | significant improvement | significant improvement | significant improvement was not observed | significant improvement was not observed | O=C(O)Cc1nn(Cc2nc3cc(C(F)(F)F)ccc3s2)c(=O)c2ccccc12 [zopolrestat] | – | significantly improved | – | no effect | – | – | – | only the partial effect | improves the cardiac performance | hepatic disorders |
